Test results taken from patent US20260232865A1, “DENDRIMER-BIOADHESIVE POLYMER HYDROGEL NANOGLUE AND USE THEREOF” (The Johns Hopkins University, priority 2016, published 2026).
Where two headings read alike, the source gives them in different places.

Columns and labels:
Format in all cases: in vivo, rat
[1] = test system: IL-6 mRNA; assay: Cytokine mRNA expression in corneal tissue by RT-PCR: IL-6; settings: POD7, normalized to healthy controls, mean±SEM
Experimental: (§1) For cytokine expression analysis, the corneas (n=10, for each group) were snap frozen in liquid nitrogen and homogenized carefully into tissue powder using pre-cooled (in liquid nitrogen) porcelain mortar and pestles. The total RNA was purified with TRIzol reagent (Life Technologies, Grand Island, NY) following the manufacturer's instruction. 3 μg of total RNA was reverse-transcribed to cDNA using High-capacity cDNA Reverse Transcription System (Life Technologies) according to the manufacturer's instructions. qRT-PCR was performed with fast SYBR Green Master Mix (Life Technologies) by a StepOnePlus Real-Time PCR System (Life Technologies). Rat GAPDH was used to normalize the expression levels of target gene and calculated by the comparative cycle threshold Ct method (2^−(ΔΔCt)).

[2] = test system: MCP-1 mRNA; assay: Cytokine mRNA expression in corneal tissue by RT-PCR: MCP-1
Experimental: as §1

[3] = test system: corneal alkali burn; settings: for Estimated area of NV / CCT: mean±standard deviation; for Opacity score: median (inter-quartile range); for CCT: rat alkali burn, subconjunctival gel, 1.6 mg of Dex/eye
Experimental: All procedures involving animals conformed with the IACUC research guidelines by the Association for Research in Vision and Ophthalmology Statement for the use of Animals in Ophthalmic and Vision Research and Johns Hopkins University. A total of 57 Lewis rats (7 to 8 weeks of age) were obtained from Harlan Laboratories Inc. (Frederick, MD). All animals weighed between 150 and 200 g, and they were housed at constant temperature (20±1° C.) and humidity (50±5%). They were fed standard rat chow and had access to water ad libitum. All procedures and tests were performed under general anesthesia with intramuscular injection of ketamine 0.9% (Bio-niche Pharma, Lake Forest, IL, USA)/xylazine 0.1% (Phoenix Pharmaceuticals, St. Joseph, MO, USA) and topical proparacaine 0.5% (Sandoz, Holzkirchen, Germany). Corneal alkali burn was generated by applying 0.5N NaOH on cornea. Briefly, sample discs SS-033 0.5 cm in diameter (WESCOR, Logan, Utah, USA) were cut in to 4 quadrants. The quadrant was soaked in 0.5N NaOH for 10 seconds and then placed on central cornea for 15 s. The burn area and the conjunctival sac were immediately irrigated with 30 mL of BSS solution using an eyedrop bottle.
Corneal alkali burn was performed on rats as described in Example 7.
After alkali burn, the animals were randomized for treatment in one of the following three groups: (i) Dendrimer-Dexamethasone conjugates entrapped in injectable, dendrimer-hyaluronic acid photocrosslinked gel with a minimal amount of free dexamethasone (D-Dex group, n=10), (ii) free dexamethasone in injectable, dendrimer-hyaluronic acid photocrosslinked gel (free-dex group, n=10), and (iii) no drug, only injectable, dendrimer-hyaluronic acid photocrosslinked gel, n=10. Both D-Dex and free-Dex groups were treated with equivalent Dex basis present in both D-Dex and free Dex formulations (1.6 mg of Dex/eye). […] The free dexamethasone group received a total of 1.6 mg of free dexamethasone. […] All forms of drugs were incorporated into injectable gel formulations (it is the same gel formulation as of example 4). The gel components are premixed and loaded in to the syringe and crosslinked to form gel using UV exposure. At the time of injection the components are in the form of gel) and injected subconjunctivally using 30-gauge, 0.5 cc insulin syringes.
Animals were assessed at baseline and at the following post-exposure time points: 24 hours, 72 hours, and 7 days. A subset of the animals was also followed up to 14 days.
The central corneal thickness (CCT) and stromal structure analysis were done using anterior chamber optical coherence tomography (OCT) (Bioptigen Envisu R-class OCT, Bioptigen, NC, USA).
Changes in intraocular pressure (IOP) were measured using a handheld tonometer (Icare LAB tonometer, Icare, Finland). The settings R for rat were chosen and three individual measurements of IOP were made for each eye for accuracy.
Corneal opacity was scored by grading the degree of transparency as previously reported by Larkin D F, et al., Clin Exp Immunol., 107:381-391 (1997). The estimated area of neovascularization (NV) was assessed by estimating the radial penetration of the neovascular vessels and their extent in degrees, and by assuming a mean corneal […] of 2.5 mm, so that the maximal area of NV was no more than 2.52π mm^2 (=19.63 mm^2).

Q: Which results are given for `C[C@@H]1C[C@H]2[C@@H]3CCC4=CC(=O)C=C[C@]4(C)[C@@]3(F)[C@@H](O)C[C@]2(C)[C@@]1(O)C(=O)CO` [Free-Dex, Dexamethasone]?
A: IL-6 mRNA levels [1]: 3.0±0.3; MCP-1 mRNA levels significantly lower compared to the positive controls ([2]; POD7, p=0.259): not true; MCP-1 mRNA levels ([2]; POD14, corneal tissue, normalized to healthy controls, mean±SEM): 15.4±3.22; Estimated area of NV ([3]; Baseline): 0 ± 0 mm^2; Opacity score ([3]; Baseline, grade 0-4): 0(0); CCT ([3]; Baseline): 142.86 ± 8.68 μm; Estimated area of NV ([3]; POD1): 0 ± 0 mm^2; Opacity score ([3]; POD1, grade 0-4): 3(3); CCT ([3]; POD1): 304.95 ± 87.23 μm; median opacity score ([3]; POD3, grade 0-4): 3.5; Estimated area of NV ([3]; POD3): 3.32 ± 1.65 mm^2; Opacity score ([3]; POD3, grade 0-4): 3.5(1); CCT ([3]; POD3): 357.71 ± 115.58 μm; Estimated area of NV ([3]; POD7): 3.8 ± 2.89 mm^2; Opacity score ([3]; POD7, grade 0-4): 1(1); CCT ([3]; POD7): 229.57 ± 91.54 μm; mean area occupied by neo-vessels ([3]; POD7 as printed in text, spread not defined): 3.32±0.34 mm^2; Estimated area of NV ([3]; POD14): 43.32 ± 5.46 mm^2; Opacity score ([3]; POD14, grade 0-4): 1(2); CCT ([3]; POD14): 226.57 ± 63.67 μm
